Values joined by “and” are separate entries in the source; they are usually repeats but may differ in a detail not shown here. Identical values can stand only once.
Experiments:
Dermacentor variabilis = experiment: Filter paper contact test against larval stages of the Dogtick; format: in vivo; details: for mortality at 10 µg/cm2, 10 µg/cm2: 10.0 μg/cm^2, 48 hour
Experimental: The test procedure used herein is the same procedure described in Example 2, for evaluating the arylpyrroles for control of Psoroptes cuniculi the Rabbit Ear Mite, with the following exceptions:
(1) Unfed larval ticks are obtained from egg masses laid by gravid female ticks removed from dogs and each replicate receives ticks from the same egg mass;
(2) Ticks survive longer than mites in the Petri dishes, thus readings are made 48 hours or longer after the test is initiated; and
(3) When reading the test it may be necessary to blow on the ticks to stimulate their movement.

Caenorhabditis elegans = experiment: Nematicidal activity against C. elegans (motility rating); format: in vivo, C. elegans (Bristol strain); set-up: key: 9: complete kill; 8: no motility; 7: markedly reduced motility in approximately 95% of worms; 6: reduced motility; 5: slightly reduced motility; 0: normal motility, same as controls; details: read at 4 and 24 hours post-immersion
Experimental: Cultures of C. elegans (Bristol strain from J. Lewis) are maintained on E. coli lawns on NG Agar Plates at 20° C. New cultures are established weekly.
Nematodes for testing are washed from 4-5 day old cultures using Fresh Ascaris Ringers Solution (FARS). The worms are further washed with FARS,-containing gentamycin, to reduce bacterial contamination and centrifuged to separate worms from wash solution. This procedure is repeated three times. The washed worms are then added to C. brigassae Maintenance Medium (CbMM), from GIBCOa to which is added gentamycin (600 units/ml) and mycostatin (0.5 mg/ml).
Compounds are dissolved in acetone and made up to volume with equal parts of water. The final test concentration of each compound in the mixture is 150 ppm. The test material is micropipetted (25 ul) into a single well of a 96-well sterile tissue culture plate (COSTAR)^b and the solvent allowed to evaporate. These "treated" plates are used immediately or stored in a refrigerator without apparent adverse effects on the compounds.
A freshly prepared volume ([…]) of C. elegans in CbMM is micropipetted into each treated well and several control wells per plate. Culture plates are incubated at 20° C.
Observations for efficacy are made under a dissecting microscope at 4 and 24 hours post-immersion. Immediately prior to reading the plate, it is gently tapped to stimulate the movement of the worms. Activity is judged based on the drug effects on motility of the adults and larvae. […] Other factors indicating activity are easily noted such as death, rigor mortis, contraction, coiling, paralysis, abnormal twitching, reduced worm population in 48 hours and other deviation from normal behavior.
Day 0 Inoculate E. Coli-NG Agar Dish With 30-40
Day 4 Harvest New C. Elegans Population
Add C. Elegans (25-100 µL) To "Medicated"
Observe for Activity at 4 hours Post-
Day 5 Observe For Activity

Psoroptes cuniculi = experiment: Filter paper contact test against Psoroptes cuniculi (Rabbit Ear Mite); format: in vivo; details: Psoroptes ovis, 24 hour; for mortality at 4 µg/cm2, 4 µg/cm2: 4.0 μg/cm^2, read-out: 24 hour % Mortality; for mortality at 10 µg/cm2, 10 µg/cm2: 10.0 μg/cm^2
Experimental: On the day prior to the test initiation the drugs to be evaluated are dissolved in acetone and diluted to the desired concentrations. The concentration is calculated so that 400 μl contains the amount of test compound to be placed on each filter paper. 400 μl of this solution is pipetted onto a top (3.7 cm dia.) and bottom (3.5 cm dia.) filter paper disks which are then placed on a ceramic plate to dry. There is a rough and smooth side to the filter paper. Drug should be applied to the rough side which is placed up while drying. When dry the two disks are placed in a Petri dish with the rough sides facing in, separated by one 3 mm glass bead. Dishes are held at room temperature overnight if done the day before the test.
Scab (containing mites) is collected from the ears of infested rabbits the morning of the test. This material is placed in a large Petri dish under an illuminated magnifier. Mites crawl out of the scab and are easily collected on the point of a dissecting needle or one prong of a pair of fine forceps. The top filter paper in each dish is removed and 12 mites are placed on the bottom disk and the top paper replaced. Before replacing the top of the Petri dish the rim of the dish is smeared with Vaseline to trap any escaping mites.
For evaluation tests there are generally 4 replicates of each dose which are counted at 24 hours. After mites are added to the dishes, the dishes in each replicate are placed in a tray which is then placed in a plastic bag with several wet towels and held at room temperature.
After 24 hours dishes are examined under a dissecting scope. Each dish is opened carefully and the top filter paper removed and saved. A 1/2 cm circle is drawn on the bottom filter paper and the paper gently wet in the area of the circle. All mites from the dish are transferred into the wet circle area and counted. The top cover is replaced on each dish and the dishes set aside for at least 15 minutes. After standing the dishes are examined and the mites remaining on the circle counted. These mites are dead. Percent mortality of the mites is then calculated for each treatment.

[1] = system: Trichostrongylus colubriformis; experiment: Control of helminths (T. colubriformis) in infected gerbils; format: in vivo, Trichostrongylus colubriformis (sheep origin) in gerbils; details: 500 PPM in diet, 4 days
Excerpt: Each test generally consists of 75 infected gerbils, randomly distributed 2 or 3 per cage (the number of animals per cage is consistent within a specific experiment). Generally, there are 8-9 untreated control gerbils (3-4 cages) per test. The remaining cages are assigned a treatment, usually 1 cage per compound or dose.
Compounds administered in diet are fed for 4 days. Animals treated by gavage or injection are generally treated on only 1 day (usually day 7).
In accordance with this test, gerbils are each orally infected by gavage, with about 400 Trichostrongylus colubriformis infective larvae of sheep origin. The infected animals are then permitted to feed and drink ad libitum for six days. On day 7 the infected gerbils are randomly placed in rodent cages 2 or 3 animals per cage. The animals in each cage are weighed and the feed for each cage weighed. If the treatment to be evaluated is medicated feed, said medicated feed is offered on day 7 and continued through day 11 of the trial. If the treatment to be evaluated is a single oral dose or a parenteral treatment, the animals are given the medication by gavage or injection on day 7 and receive unmedicated feed and water through day 11 of the trial. On day 11 the animals and their feed are weighed. Thereafter the animals are euthanized by CO2 inhalation and their small intestines removed, inverted on application sticks and incubated in tap water at 39° C. for 1-5 hours. The sticks and intestines are then discarded and the worms from each treatment counted to determine the % mortality of the worms as compared to untreated controls.

Housefly Larvae = experiment: Inhibition of pupation of newly emerged housefly larvae; format: in vivo; details: Musca domestica, 168 h, one week, 27° C., corrected by Abbott's formula
Experimental: In this test system newly emerged housefly larvae are grown on an undefined medium of fermented whole milk and dried beef blood. Compounds are added to the milk and activity is determined by the failure of larvae to pupate.
The test is run in 1 oz. plastic medicine cups. Paper toweling is cut in pieces approximately 3.5×10 cm. Three of these pieces are folded accordion style and placed in each paper cup. A piece of masking tape is placed on the outside of the cup to facilitate numbering. Cups should be prepared prior to the day the test is to begin.
Newly hatched housefly larvae are obtained on the morning the test is to begin. The eggs are laid the night before and larvae usually begin to hatch by 9-10 AM the following morning.
Twenty-four hours before the initiation of the test, one half gallon of whole milk is divided into 5 1-liter beakers and placed in an incubator at 39° C.
The morning of the test, one 250 ml beaker is labeled for each treatment. The fermented milk is removed from the incubator, stirred and poured into each of the small beakers. The beakers are then returned to the incubator and 1-2 g of dried beef blood added to each beaker to distribute blood which will not dissolve. The beakers are again returned to the incubator.
Doses of compounds are calculated so that 0.1 ml contains the amount of compound to be added to 100 ml of milk. Compounds should be dissolved in acetone. 100 μl of acetone is added to each control beaker.
Each beaker is removed from incubator and placed on a magnetic stirrer. The compound is added and thoroughly mixed. Then 20 ml portions are removed and added to labelled test cups (4 reps/treatment). Cups are placed in stainless steel tray until all are prepared. […] The tray containing the cups are then placed in a plastic bag and maintained at room temperature.
The media that the fly eggs are laid in is spread out in a green or black pan so that larvae can be observed. Working under an illuminated magnifier 20 larvae are transferred into each cup using a fine paint brush. Each cup is then sealed in a Zip-Loc sandwich bag with a few pinholes in it.
Bags containing cups are placed on a flat tray and placed in a 27° C. incubator for one week. The majority of the larvae will have pupated at this point.
Trays are then removed from the incubator and the number of pupae in each bag recorded. The paper toweling is removed and examined closely for any pupae that have remained in the cups. Most of the pupae will be loose in the bag. A note is also made of any dead or live developed larvae. If there are larvae that appear capable of pupating, the bag may be returned to the incubator for a day to see if they will pupate.
The percent development of pupae is then calculated. The final results are expressed as a percent inhibition of pupation and are corrected for control mortality by using Abbott's formula.

Cn1c(Cl)c(Cl)c(C#N)c1-c1ccc(OC(F)(F)F)cc1 [4,5-Dichloro-1-methyl-2-[P-(trifluoromethoxy)phenyl]-pyrrole-3-carbonitrile]
mortality at 10 µg/cm2, 10 µg/cm2 (Dermacentor variabilis): 55%

O=[N+]([O-])c1c(-c2ccc(Cl)cc2)[nH]c(Cl)c1Cl [2,3-Dichloro-5-(P-chlorophenyl)-4-nitropyrrole]
Rating Against C. Elegans 150 ppm (Caenorhabditis elegans): 9 | mortality at 4 µg/cm2, 4 µg/cm2 (Psoroptes cuniculi): 52% | mortality at 10 µg/cm2, 10 µg/cm2 (Psoroptes cuniculi): 91% | mortality at 10 µg/cm2, 10 µg/cm2 (Dermacentor variabilis): 58%

CCOCn1c(-c2ccc(Cl)c(Cl)c2)c(C#N)c(Br)c1C(F)(F)F [4-bromo-2-(3,4-dichlorophenyl)-1-(ethoxymethyl)-5-(trifluoromethyl)-pyrrole-3-carbonitrile]
Rating Against C. Elegans 150 ppm (Caenorhabditis elegans): 9 | % Helminth removal [1]: 15% and 28%

CCOCn1c(C(F)(F)F)cc([N+](=O)[O-])c1-c1ccc(Cl)c(Cl)c1 [2-(3,4-Dichlorophenyl)-1-(ethoxymethyl)-3-nitro-5-(trifluoromethyl)pyrrole]
mortality at 4 µg/cm2, 4 µg/cm2 (Psoroptes cuniculi): 92%

4-Bromo-1-(ethoxymethyl)-5-(trifluoromethyl)pyrrole-3-carbonitrile
% Helminth removal [1]: 13%

CCOCn1c(-c2ccc(Br)cc2)c(C#N)c(Br)c1C(F)(F)F [4-Bromo-2-(P-bromophenyl)-1-(ethoxymethyl)-5-(trifluoromethyl)pyrrole-3-carbonitrile]
mortality at 4 µg/cm2, 4 µg/cm2 (Psoroptes cuniculi): 31%

N#Cc1c(Br)[nH]c(-c2ccc(Cl)cc2)c1Br [2,4-dibromo-5-(p-chlorophenyl)pyrrole-3-carbonitrile]
mortality at 4 µg/cm2, 4 µg/cm2 (Psoroptes cuniculi): 11%

N#Cc1c(-c2ccc(Cl)c(Cl)c2)[nH]c(Cl)c1Cl [4,5-dichloro-2-(3,4-dichlorophenyl)pyrrole-3-carbonitrile]
mortality at 10 µg/cm2, 10 µg/cm2 (Psoroptes cuniculi): 33% | mortality at 10 µg/cm2, 10 µg/cm2 (Dermacentor variabilis): 40%

O=[N+]([O-])c1c(-c2ccccc2)[nH]c(C(F)(F)F)c1C(F)(F)F [3-nitro-2-phenyl-4,5-bis(trifluoromethyl)pyrrole]
Rating Against C. Elegans 150 ppm (Caenorhabditis elegans): 9 | % Helminth removal [1]: 42%

N#Cc1cc[nH]c1-c1cc(F)c(Cl)cc1Cl [2-(2,4-Dichloro-5-fluorophenyl)pyrrole-3-carbonitrile]
mortality at 4 µg/cm2, 4 µg/cm2 (Psoroptes cuniculi): 73%

CCOCn1c(-c2ccc(Cl)cc2)c(C#N)c(Br)c1C(F)(F)F [4-Bromo-2-(P-chlorophenyl)-1-(ethoxymethyl)-5-(trifluoromethyl)-2-(α,α,α-trifluoro-P-tolyl)pyrrole-3-carbonitrile]
% Helminth removal [1]: 29%

N#CCn1c(Cl)c(Cl)c(C#N)c1-c1ccc(C(F)(F)F)cc1 [2,3-Dichloro-4-cyano-5-(α,α,α-trifluoro-P-tolyl)-pyrrole-1-acetonitrile]
Rating Against C. Elegans 150 ppm (Caenorhabditis elegans): 9 | mortality at 4 µg/cm2, 4 µg/cm2 (Psoroptes cuniculi): 77% | inhibition at 10 ppm (Housefly Larvae): 100%

CCOCn1c(Cl)c(Cl)c(C#N)c1-c1ccc(OC(F)(F)F)cc1 [4,5-Dichloro-1-(ethoxymethyl)-2-[P-(trifluoromethoxy)phenyl]pyrrole-3-carbonitrile]
mortality at 4 µg/cm2, 4 µg/cm2 (Psoroptes cuniculi): 100%

CCOCn1c(-c2ccc(Cl)cc2)c(C#N)c(Br)c1C(F)(F)F [4-bromo-2-(P-chlorophenyl)-1-(ethoxymethyl)-5-(trifluoromethyl)pyrrole-3-carbonitrile]
Rating Against C. Elegans 150 ppm (Caenorhabditis elegans): 9 | mortality at 4 µg/cm2, 4 µg/cm2 (Psoroptes cuniculi): 76% | mortality at 1 µg/cm2, 1 µg/cm2 (Dermacentor variabilis; 1.0 μg/cm^2, 48 hour): 77% | mortality at 4 µg/cm2, 4 µg/cm2 (Dermacentor variabilis; 4.0 μg/cm^2, 48 hour): 83% | mortality at 5 µg/cm2, 5 µg/cm2 (Dermacentor variabilis; 5.0 μg/cm^2, 48 hour): 100% | mortality at 10 µg/cm2, 10 µg/cm2 (Dermacentor variabilis): 100% | inhibition at 1 ppm (Housefly Larvae; 1.0 ppm): 15% | inhibition at 2.5 ppm (Housefly Larvae; 2.5 ppm): 0% | inhibition at 5 ppm (Housefly Larvae; 5.0 ppm): 38% | inhibition at 10 ppm (Housefly Larvae): 99%

COCn1c(-c2ccc(Cl)cc2)c(C#N)c(Br)c1C(F)(F)F [4-Bromo-2-(P-chlorophenyl)-1-(1-methoxymethyl)-5-(trifluoromethyl)pyrrole-3-carbonitrile]
Rating Against C. Elegans 150 ppm (Caenorhabditis elegans): 9
